Broadly, the IC50 is the midpoint of a concentration-inhibition curve. Low readings indicate greater potency, high ones weaker potency.

In the experiment the target is T1, Gag-Pol polyprotein [1148-1435] (Human immunodeficiency virus 1, UniProt P04585).
T1 construct: 1148-1435
Description: In Vitro Integrase Assay. The procedure: The compound were evaluated in biochemical IN (integrase) assay that measure inhibitory potency (IC50 values)against both the 3'-processing(3'P)and strand transfer(ST)reaction.

Compound `COC(=O)CCc1c2c(c(O)c(=O)n1C(C)C)C(=O)N(Cc1ccc(F)c(Cl)c1)C2=O` [Bicyclic hydroxy-1H-pyrrolopyridine-trione, 5e] gave an IC50 of 7.1 µM.
Consider `Cc1c2c(c(O)c(=O)n1-c1ccccc1)C(=O)N(Cc1ccc(F)c(Cl)c1)C2=O` [Bicyclic hydroxy-1H-pyrrolopyridine-trione, 5b], for which half-maximal inhibition (IC50) was put at 6.4 µM.
The compound `CC(=O)OCc1[nH]c(=O)c(O)c2c1C(=O)N(Cc1ccc(F)c(Cl)c1)C2=O` [Bicyclic hydroxy-1H-pyrrolopyridine-trione, 5f] showed an IC50 of 12.3 µM.
Consider `CC(C)Cc1c2c(c(O)c(=O)n1C(C)C)C(=O)N(Cc1ccc(F)c(Cl)c1)C2=O` [Bicyclic hydroxy-1H-pyrrolopyridine-trione, 5c], for which the half-maximal inhibitory concentration (IC50) is 21.6 µM.
With `CC(=O)OCc1c2c(c(O)c(=O)n1C(C)C)C(=O)N(Cc1ccc(F)c(Cl)c1)C2=O` [Bicyclic hydroxy-1H-pyrrolopyridine-trione, 5d] the figure was 15.6 µM; with `O=C1c2c(CO)[nH]c(=O)c(O)c2C(=O)N1Cc1ccc(F)c(Cl)c1` [Bicyclic hydroxy-1H-pyrrolopyridine-trione, 5g], 6.5 µM; with `Cc1c2c(c(O)c(=O)n1C)C(=O)N(Cc1ccc(F)c(Cl)c1)C2=O` [Bicyclic hydroxy-1H-pyrrolopyridine-trione, 5a], 6.7 µM.

These data come from BindingDB's records for doi:10.1111/j.1747-0285.2011.01270.x (National Institutes of Health, 2012).
